System: yellow spot
Assay: Percent turf area exhibiting yellow spot symptoms (Example 2)
Format: in vivo, Agrostis palustris
Settings: alone versus in combination
Procedure: In another aspect, a composition herein treats or reduces yellow spot disease. Yellow spot appears in the form of yellow, chlorotic, circular discrete patches ranging from dime/quarter size up to 2-3 inches diameter on bentgrass putting greens, tees, and approaches.
The study was conducted on “A-1” creeping bentgrass maintained as a golf course putting green. Plots were mowed 6 times per week with clippings collected. The study was irrigated to prevent drought stress. Individual plots were 3 ft×6 ft and arranged in a randomized complete block design with 4 replications. Chipco 26GT (4 fl oz/1000 ft^2) was applied to the study for suppression of dollar spot and brown patch on 2 May, 9 June, 29 July, and 20 August. Treatments were applied in water equivalent to 2 gal 1000 ft-2 with a CO2-powered sprayer equipped with a TeeJet AI9508E nozzle at 50 psi. Treatments were initiated on 24 April and applied on 28-day intervals. The study was irrigated with 0.1-0.2 inches of water after all treatments were applied. […] Turfgrass quality was assessed on 24 April, 21 May, 18 June, 16 July, 13 August, and 2 September. NDVI was assessed on 21 May, 18 June, 17 July, 13 August, and 2 September. Root length (3 subsamples per plot) was assessed on 18 September.

SMILES: CCCOC(=O)NCCCN(C)C [propamocarb]
- Control of yellow spot disease (in words): not controlled

From patent US10945438B2, “Methods and compositions for reducing fungal infestation and improving grass quality” (BASF CORPORATION, priority 2015, dated 2021)
